Test results published in ChEMBL document CHEMBL4049403, “Oligo-aspartic acid conjugates with benzo[c][2,6]naphthyridine-8-carboxylic acid scaffold as picomolar inhibitors of CK2” (Bioorg Med Chem, 2017).
Where a SMILES comes first, the peptide text is derived from it. The star is where a group is joined. X1 = O=C(O)c1ccc2c(c1)nc(OCCCCCCCCC(=O)*)c1ccncc12

Legend:
[1] = molecular target: Serine/threonine-protein kinase Sgk1 (Homo sapiens) (UniProt O00141); experiment: Inhibition of human SGK1 assessed as residual activity at 1 uM in presence of [33P]ATP by filter binding assay relative to control
[2] = molecular target: Ribosomal protein S6 kinase beta-1 (Homo sapiens) (UniProt P23443); experiment: Inhibition of human S6K1 assessed as residual activity at 1 uM in presence of 33P-ATP by filter-binding assay relative to control
[3] = molecular target: Maternal embryonic leucine zipper kinase (Homo sapiens) (UniProt Q14680); experiment: Inhibition of human MELK assessed as residual activity at 1 uM in presence of [33P]ATP by filter binding assay relative to control
[4] = molecular target: Serine/threonine-protein kinase pim-1 (Homo sapiens) (UniProt P11309); experiment: Inhibition of human PIM1 assessed as residual activity at 1 uM in presence of 33P-ATP by filter-binding assay relative to control
[5] = molecular target: Serine/threonine-protein kinase ULK1 (Homo sapiens) (UniProt O75385); experiment: Inhibition of human ULK1 assessed as residual activity at 1 uM in presence of [33P]ATP by filter binding assay relative to control
[6] = molecular target: Dual specificity tyrosine-phosphorylation-regulated kinase 2 (Homo sapiens) (UniProt Q92630); experiment: Inhibition of human DYRK2 assessed as residual activity at 1 uM in presence of 33P-ATP by filter-binding assay relative to control
[7] = molecular target: Tyrosine-protein kinase SYK (Homo sapiens) (UniProt P43405); experiment: Inhibition of human SYK assessed as residual activity at 1 uM in presence of [33P]ATP by filter binding assay relative to control
[8] = molecular target: Testis-specific serine/threonine-protein kinase 1 (Homo sapiens) (UniProt Q9BXA7); experiment: Inhibition of human TSSK1 assessed as residual activity at 1 uM in presence of [33P]ATP by filter binding assay relative to control
[9] = molecular target: Receptor tyrosine-protein kinase erbB-4 (Homo sapiens) (UniProt Q15303); experiment: Inhibition of human HER4 assessed as residual activity at 1 uM in presence of [33P]ATP by filter binding assay relative to control
[10] = molecular target: Serine/threonine-protein kinase Nek6 (Homo sapiens) (UniProt Q9HC98); experiment: Inhibition of human NEK6 assessed as residual activity at 1 uM in presence of [33P]ATP by filter binding assay relative to control
[11] = molecular target: Serine/threonine-protein kinase Chk2 (Homo sapiens) (UniProt O96017); experiment: Inhibition of human CHK2 assessed as residual activity at 1 uM in presence of [33P]ATP by filter binding assay relative to control
[12] = molecular target: Serine/threonine-protein kinase BRSK1 (Homo sapiens) (UniProt Q8TDC3); experiment: Inhibition of human BRSK1 assessed as residual activity at 1 uM in presence of 33P-ATP by filter-binding assay relative to control
[13] = molecular target: Mitogen-activated protein kinase 12 (Homo sapiens) (UniProt P53778); experiment: Inhibition of human P38g MAPK assessed as residual activity at 1 uM in presence of [33P]ATP by filter binding assay relative to control
[14] = species on record: Homo sapiens; experiment: Inhibition of human PHK assessed as residual activity at 1 uM in presence of [33P]ATP by filter binding assay relative to control
[15] = molecular target: Mitogen-activated protein kinase 11 (Homo sapiens) (UniProt Q15759); experiment: Inhibition of human P38b MAPK assessed as residual activity at 1 uM in presence of [33P]ATP by filter binding assay relative to control
[16] = molecular target: RAC-beta serine/threonine-protein kinase (Homo sapiens) (UniProt P31751); experiment: Inhibition of human PKBb assessed as residual activity at 1 uM in presence of [33P]ATP by filter binding assay relative to control
[17] = molecular target: Mitogen-activated protein kinase 1 (Homo sapiens) (UniProt P28482); experiment: Inhibition of human ERK2 assessed as residual activity at 1 uM in presence of [33P]ATP by filter binding assay relative to control
[18] = molecular target: Serine/threonine-protein kinase PINK1, mitochondrial (Homo sapiens) (UniProt Q9BXM7); experiment: Inhibition of human PINK assessed as residual activity at 1 uM in presence of [33P]ATP by filter binding assay relative to control
[19] = molecular target: Mitogen-activated protein kinase 8 (Homo sapiens) (UniProt P45983); experiment: Inhibition of human JNK1 assessed as residual activity at 1 uM in presence of [33P]ATP by filter binding assay relative to control
[20] = molecular target: Serine/threonine-protein kinase N2 (Homo sapiens) (UniProt Q16513); experiment: Inhibition of human PRK2 assessed as residual activity at 1 uM in presence of [33P]ATP by filter binding assay relative to control
[21] = molecular target: Serine/threonine-protein kinase TBK1 (Homo sapiens) (UniProt Q9UHD2); experiment: Inhibition of human TBK1 assessed as residual activity at 1 uM in presence of 33P-ATP by filter-binding assay relative to control
[22] = molecular target: TGF-beta receptor type-1 (Homo sapiens) (UniProt P36897); experiment: Inhibition of human TGFBR1 assessed as residual activity at 1 uM in presence of [33P]ATP by filter binding assay relative to control
[23] = molecular target: Serine/threonine-protein kinase Nek2 (Homo sapiens) (UniProt P51955); experiment: Inhibition of human NEK2a assessed as residual activity at 1 uM in presence of [33P]ATP by filter binding assay relative to control
[24] = molecular target: Mitogen-activated protein kinase 10 (Homo sapiens) (UniProt P53779); experiment: Inhibition of human JNK3 assessed as residual activity at 1 uM in presence of [33P]ATP by filter binding assay relative to control
[25] = molecular target: Casein kinase I isoform gamma-2 (Homo sapiens) (UniProt P78368); experiment: Inhibition of human CK1gamma2 assessed as residual activity at 1 uM in presence of [33P]ATP by filter binding assay relative to control
[26] = molecular target: Mitogen-activated protein kinase kinase kinase 9 (Homo sapiens) (UniProt P80192); experiment: Inhibition of human MLK1 assessed as residual activity at 1 uM in presence of 33P-ATP by filter-binding assay relative to control
[27] = molecular target: Casein kinase I isoform delta (Homo sapiens) (UniProt P48730); experiment: Inhibition of human CK1delta assessed as residual activity at 1 uM in presence of [33P]ATP by filter binding assay relative to control
[28] = molecular target: Tyrosine-protein kinase CSK (Homo sapiens) (UniProt P41240); experiment: Inhibition of human CSK assessed as residual activity at 1 uM in presence of [33P]ATP by filter binding assay relative to control
[29] = molecular target: Serine/threonine-protein kinase SIK3 (Homo sapiens) (UniProt Q9Y2K2); experiment: Inhibition of human SIK3 assessed as residual activity at 1 uM in presence of [33P]ATP by filter binding assay relative to control
[30] = molecular target: Dual specificity protein kinase TTK (Homo sapiens) (UniProt P33981); experiment: Inhibition of human TTK assessed as residual activity at 1 uM in presence of 33P-ATP by filter-binding assay relative to control

Sequence of Serine/threonine-protein kinase Nek2 (Homo sapiens) (P51955 whole entry): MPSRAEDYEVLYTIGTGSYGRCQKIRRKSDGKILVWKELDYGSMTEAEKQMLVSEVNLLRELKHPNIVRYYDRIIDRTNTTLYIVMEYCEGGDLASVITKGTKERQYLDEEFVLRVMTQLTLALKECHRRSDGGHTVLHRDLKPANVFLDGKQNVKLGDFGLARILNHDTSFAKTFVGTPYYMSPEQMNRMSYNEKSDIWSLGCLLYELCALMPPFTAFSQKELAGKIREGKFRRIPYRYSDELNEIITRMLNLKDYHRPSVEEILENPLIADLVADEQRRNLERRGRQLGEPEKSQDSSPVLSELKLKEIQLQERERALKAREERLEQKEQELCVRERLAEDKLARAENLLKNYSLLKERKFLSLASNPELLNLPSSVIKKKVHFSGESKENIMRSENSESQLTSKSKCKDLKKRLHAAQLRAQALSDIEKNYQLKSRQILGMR
Sequence of Tyrosine-protein kinase CSK (Homo sapiens) (P41240 2-450 limits assumed): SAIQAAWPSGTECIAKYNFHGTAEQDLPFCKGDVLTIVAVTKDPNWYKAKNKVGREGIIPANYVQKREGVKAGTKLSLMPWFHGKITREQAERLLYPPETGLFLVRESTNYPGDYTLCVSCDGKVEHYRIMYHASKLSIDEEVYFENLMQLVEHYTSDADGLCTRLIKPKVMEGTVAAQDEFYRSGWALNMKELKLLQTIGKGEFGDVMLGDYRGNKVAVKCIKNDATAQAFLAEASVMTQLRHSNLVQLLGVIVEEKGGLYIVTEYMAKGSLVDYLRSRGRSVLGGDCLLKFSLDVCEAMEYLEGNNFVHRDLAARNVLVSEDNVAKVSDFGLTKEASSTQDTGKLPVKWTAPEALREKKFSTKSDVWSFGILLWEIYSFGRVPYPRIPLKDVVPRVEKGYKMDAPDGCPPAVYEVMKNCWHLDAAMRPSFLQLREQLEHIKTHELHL
Sequence of Casein kinase I isoform delta (Homo sapiens) (P48730 whole entry, looked up, canonical isoform): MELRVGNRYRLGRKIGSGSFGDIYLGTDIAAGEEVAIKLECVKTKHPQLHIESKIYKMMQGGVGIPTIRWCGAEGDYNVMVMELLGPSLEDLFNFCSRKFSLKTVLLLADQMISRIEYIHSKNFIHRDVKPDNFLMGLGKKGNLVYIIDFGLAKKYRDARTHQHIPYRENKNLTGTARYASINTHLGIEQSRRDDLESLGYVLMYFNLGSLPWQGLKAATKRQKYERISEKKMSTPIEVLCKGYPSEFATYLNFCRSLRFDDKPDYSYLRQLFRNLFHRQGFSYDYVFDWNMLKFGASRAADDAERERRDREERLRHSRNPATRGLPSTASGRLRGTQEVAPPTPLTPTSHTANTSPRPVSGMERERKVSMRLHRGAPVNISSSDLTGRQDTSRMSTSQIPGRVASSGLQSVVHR
Sequence of Serine/threonine-protein kinase pim-1 (Homo sapiens) (P11309 whole entry, looked up): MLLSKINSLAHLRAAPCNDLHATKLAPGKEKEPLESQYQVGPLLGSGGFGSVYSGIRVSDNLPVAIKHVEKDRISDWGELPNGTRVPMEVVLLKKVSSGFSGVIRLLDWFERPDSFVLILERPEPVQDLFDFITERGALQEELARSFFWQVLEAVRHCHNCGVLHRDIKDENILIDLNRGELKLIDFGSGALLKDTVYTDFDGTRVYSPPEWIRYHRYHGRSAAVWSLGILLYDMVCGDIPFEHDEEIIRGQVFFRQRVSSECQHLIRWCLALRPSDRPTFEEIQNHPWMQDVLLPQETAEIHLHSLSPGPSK
Sequence of Mitogen-activated protein kinase 8 (Homo sapiens) (P45983 whole entry): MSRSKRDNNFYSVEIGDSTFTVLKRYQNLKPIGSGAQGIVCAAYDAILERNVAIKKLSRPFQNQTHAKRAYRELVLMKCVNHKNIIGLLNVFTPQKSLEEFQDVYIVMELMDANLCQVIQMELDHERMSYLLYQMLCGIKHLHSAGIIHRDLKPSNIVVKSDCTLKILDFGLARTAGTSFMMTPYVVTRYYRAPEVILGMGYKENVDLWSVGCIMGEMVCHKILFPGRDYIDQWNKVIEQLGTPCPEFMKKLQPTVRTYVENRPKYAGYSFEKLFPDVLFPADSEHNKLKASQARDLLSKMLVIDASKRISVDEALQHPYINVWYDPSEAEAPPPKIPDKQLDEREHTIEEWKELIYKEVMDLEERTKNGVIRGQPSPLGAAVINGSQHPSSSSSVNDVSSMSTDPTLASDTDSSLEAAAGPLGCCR
Sequence of Serine/threonine-protein kinase Nek6 (Homo sapiens) (Q9HC98 whole entry): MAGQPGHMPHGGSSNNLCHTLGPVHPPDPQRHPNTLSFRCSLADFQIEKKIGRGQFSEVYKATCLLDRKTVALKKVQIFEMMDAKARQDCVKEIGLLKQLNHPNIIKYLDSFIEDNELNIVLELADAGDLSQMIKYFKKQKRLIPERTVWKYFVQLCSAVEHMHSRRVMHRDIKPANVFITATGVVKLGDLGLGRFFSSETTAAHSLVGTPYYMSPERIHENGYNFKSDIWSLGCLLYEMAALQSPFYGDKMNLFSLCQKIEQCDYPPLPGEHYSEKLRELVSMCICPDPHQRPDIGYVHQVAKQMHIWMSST
Sequence of Mitogen-activated protein kinase 11 (Homo sapiens) (Q15759 whole entry): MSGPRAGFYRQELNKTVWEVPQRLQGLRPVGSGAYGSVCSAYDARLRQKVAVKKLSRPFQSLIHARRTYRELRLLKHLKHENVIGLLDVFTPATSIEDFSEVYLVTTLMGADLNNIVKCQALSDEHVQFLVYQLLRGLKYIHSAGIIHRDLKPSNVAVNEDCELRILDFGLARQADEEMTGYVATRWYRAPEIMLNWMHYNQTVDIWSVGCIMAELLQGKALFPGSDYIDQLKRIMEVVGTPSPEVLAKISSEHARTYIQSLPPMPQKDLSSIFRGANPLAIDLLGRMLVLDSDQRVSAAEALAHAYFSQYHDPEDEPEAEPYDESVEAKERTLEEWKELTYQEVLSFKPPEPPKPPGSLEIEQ
Sequence of Mitogen-activated protein kinase 1 (Homo sapiens) (P28482 whole entry): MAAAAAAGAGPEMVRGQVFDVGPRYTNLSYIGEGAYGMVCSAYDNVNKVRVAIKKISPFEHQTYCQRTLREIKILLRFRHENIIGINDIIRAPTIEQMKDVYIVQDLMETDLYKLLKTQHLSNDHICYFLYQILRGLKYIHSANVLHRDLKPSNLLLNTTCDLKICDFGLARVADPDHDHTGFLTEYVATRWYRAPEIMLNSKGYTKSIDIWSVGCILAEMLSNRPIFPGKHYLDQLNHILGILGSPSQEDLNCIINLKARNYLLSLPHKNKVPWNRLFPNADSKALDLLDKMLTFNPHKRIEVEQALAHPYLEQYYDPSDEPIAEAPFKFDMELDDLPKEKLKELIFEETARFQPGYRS
Sequence of Maternal embryonic leucine zipper kinase (Homo sapiens) (Q14680 whole entry, looked up): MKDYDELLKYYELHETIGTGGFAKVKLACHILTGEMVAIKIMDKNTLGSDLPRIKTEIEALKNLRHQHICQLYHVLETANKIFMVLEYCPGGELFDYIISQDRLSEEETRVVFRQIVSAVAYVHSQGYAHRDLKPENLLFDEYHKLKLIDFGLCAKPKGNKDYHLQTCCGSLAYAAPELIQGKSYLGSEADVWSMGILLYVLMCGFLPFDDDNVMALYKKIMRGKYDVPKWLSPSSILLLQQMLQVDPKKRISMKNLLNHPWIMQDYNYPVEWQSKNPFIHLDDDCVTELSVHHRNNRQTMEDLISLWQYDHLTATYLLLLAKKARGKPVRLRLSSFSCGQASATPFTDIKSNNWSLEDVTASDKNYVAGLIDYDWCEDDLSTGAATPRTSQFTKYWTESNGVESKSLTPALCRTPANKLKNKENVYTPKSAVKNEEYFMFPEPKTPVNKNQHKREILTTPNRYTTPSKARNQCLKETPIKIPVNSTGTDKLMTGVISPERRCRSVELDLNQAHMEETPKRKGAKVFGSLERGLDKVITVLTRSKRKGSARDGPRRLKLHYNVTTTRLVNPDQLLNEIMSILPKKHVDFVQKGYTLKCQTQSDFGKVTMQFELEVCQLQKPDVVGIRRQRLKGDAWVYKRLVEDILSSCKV
Sequence of Mitogen-activated protein kinase 10 (Homo sapiens) (P53779 whole entry, canonical isoform): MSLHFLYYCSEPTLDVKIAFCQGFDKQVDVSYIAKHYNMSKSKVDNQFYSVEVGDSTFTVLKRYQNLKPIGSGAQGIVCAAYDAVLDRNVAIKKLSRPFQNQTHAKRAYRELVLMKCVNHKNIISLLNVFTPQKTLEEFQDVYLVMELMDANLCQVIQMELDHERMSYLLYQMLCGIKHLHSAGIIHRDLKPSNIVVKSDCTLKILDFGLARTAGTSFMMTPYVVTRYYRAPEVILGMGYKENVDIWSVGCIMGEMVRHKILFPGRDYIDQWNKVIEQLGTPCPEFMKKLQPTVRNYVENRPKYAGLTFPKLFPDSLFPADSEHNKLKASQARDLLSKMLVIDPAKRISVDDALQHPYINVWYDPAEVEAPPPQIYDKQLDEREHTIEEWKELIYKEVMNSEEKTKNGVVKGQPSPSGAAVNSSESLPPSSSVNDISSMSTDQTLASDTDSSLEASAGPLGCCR
Sequence of TGF-beta receptor type-1 (Homo sapiens) (P36897 whole entry): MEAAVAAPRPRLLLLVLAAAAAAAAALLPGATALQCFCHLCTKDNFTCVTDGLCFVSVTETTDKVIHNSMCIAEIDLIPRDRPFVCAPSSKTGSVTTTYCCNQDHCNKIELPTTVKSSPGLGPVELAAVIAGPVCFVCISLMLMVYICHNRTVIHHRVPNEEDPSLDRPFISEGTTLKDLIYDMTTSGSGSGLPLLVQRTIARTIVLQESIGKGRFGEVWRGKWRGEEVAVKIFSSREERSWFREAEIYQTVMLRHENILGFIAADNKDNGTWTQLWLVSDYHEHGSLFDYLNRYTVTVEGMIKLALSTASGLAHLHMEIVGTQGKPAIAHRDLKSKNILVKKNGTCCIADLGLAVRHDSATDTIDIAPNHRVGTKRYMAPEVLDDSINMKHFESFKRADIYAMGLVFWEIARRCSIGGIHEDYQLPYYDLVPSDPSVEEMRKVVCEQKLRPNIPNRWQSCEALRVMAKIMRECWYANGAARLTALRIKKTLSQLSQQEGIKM

Activity [1]: 84%
Activity [2]: 31%
Activity [3]: 93%
Activity [4]: 64%
Activity [5]: 90%
Activity [6]: 5%
Activity [7]: 84%
Activity [8]: 84%
Activity [9]: 90%
Activity [10]: 90%
Activity [11]: 92%
Activity [12]: 63%
Activity [13]: 107%
Activity [14]: 97%
Activity [15]: 107%
Activity [16]: 100%
Activity [17]: 90%
Activity [18]: 93%
Activity [19]: 91%
Activity [20]: 90%
Activity [21]: 34%
Activity [22]: 85%
Activity [23]: 76%
Activity [24]: 94%
Activity [25]: 86%
Activity [26]: 42%
Activity [27]: 82%
Activity [28]: 77%
Activity [29]: 90%
Activity [30]: 48%
Structure (SMILES): NCCCC[C@H](NC(=O)[C@H](CC(=O)O)NC(=O)[C@H](CC(=O)O)NC(=O)[C@H](CC(=O)O)NC(=O)[C@H](CC(=O)O)NC(=O)[C@H](CC(=O)O)NC(=O)[C@H](CC(=O)O)NC(=O)CCCCCCCCOc1nc2cc(C(=O)O)ccc2c2cnccc12)C(=O)O (X1-DDDDDDK-OH)
